Assay results taken from ChEMBL document CHEMBL1201862, “PubChem BioAssay data set” (2004).
Activity calls are given as the source filed them.

Assays:
[1] = viability loss of HPDE-C7K cells – cell-based, fluorescence, HTS, primary screen (AID 431); format: functional; settings: Homo sapiens
[2] = HPDE-C7 pancreatic duct cell viability loss – fluorescence, HTS (AID 430); format: functional, cell-based; settings: Homo sapiens
[3] = biological target: T1, Replicative DNA helicase DnaB (Mycobacterium tuberculosis, UniProt P9WMR3); assay: DnaB intein splicing inhibitors, dose response, biochemical, cell-free fluorescence (AID 449749); format: functional
T1 sequence (P9WMR3 whole entry): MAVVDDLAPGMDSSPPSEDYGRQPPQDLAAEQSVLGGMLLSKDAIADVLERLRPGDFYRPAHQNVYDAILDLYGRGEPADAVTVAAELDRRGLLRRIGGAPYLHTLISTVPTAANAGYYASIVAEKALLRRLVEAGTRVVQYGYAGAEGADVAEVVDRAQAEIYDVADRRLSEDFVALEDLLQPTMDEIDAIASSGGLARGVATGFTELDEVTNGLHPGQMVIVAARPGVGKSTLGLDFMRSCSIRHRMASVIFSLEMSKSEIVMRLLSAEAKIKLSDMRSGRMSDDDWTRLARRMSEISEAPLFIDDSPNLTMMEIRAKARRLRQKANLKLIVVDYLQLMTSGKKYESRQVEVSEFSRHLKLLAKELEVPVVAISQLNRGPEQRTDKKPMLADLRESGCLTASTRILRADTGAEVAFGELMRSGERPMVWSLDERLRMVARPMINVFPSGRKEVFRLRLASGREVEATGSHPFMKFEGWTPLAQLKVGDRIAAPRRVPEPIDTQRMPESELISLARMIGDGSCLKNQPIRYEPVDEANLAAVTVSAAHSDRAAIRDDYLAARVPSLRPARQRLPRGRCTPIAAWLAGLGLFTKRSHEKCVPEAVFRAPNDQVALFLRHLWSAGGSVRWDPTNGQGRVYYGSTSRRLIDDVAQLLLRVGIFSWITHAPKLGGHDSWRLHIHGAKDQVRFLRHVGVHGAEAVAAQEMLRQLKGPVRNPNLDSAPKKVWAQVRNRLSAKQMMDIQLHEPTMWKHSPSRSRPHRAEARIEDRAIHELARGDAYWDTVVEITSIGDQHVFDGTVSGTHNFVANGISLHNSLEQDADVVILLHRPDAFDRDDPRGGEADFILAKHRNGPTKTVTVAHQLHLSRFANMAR

Protein RecA = biological target: T2, Protein RecA (Mycobacterium tuberculosis, UniProt P9WHJ3); assay: Fluorescence Cell-Free Homogeneous Dose Retest to Identify Inhibitors of RecA-Intein Splicing Activity. [Related pubchem assays (depositor defined):AID2097, AID2223, AID489010, AID492950]; format: functional
T2 sequence (P9WHJ3 whole entry): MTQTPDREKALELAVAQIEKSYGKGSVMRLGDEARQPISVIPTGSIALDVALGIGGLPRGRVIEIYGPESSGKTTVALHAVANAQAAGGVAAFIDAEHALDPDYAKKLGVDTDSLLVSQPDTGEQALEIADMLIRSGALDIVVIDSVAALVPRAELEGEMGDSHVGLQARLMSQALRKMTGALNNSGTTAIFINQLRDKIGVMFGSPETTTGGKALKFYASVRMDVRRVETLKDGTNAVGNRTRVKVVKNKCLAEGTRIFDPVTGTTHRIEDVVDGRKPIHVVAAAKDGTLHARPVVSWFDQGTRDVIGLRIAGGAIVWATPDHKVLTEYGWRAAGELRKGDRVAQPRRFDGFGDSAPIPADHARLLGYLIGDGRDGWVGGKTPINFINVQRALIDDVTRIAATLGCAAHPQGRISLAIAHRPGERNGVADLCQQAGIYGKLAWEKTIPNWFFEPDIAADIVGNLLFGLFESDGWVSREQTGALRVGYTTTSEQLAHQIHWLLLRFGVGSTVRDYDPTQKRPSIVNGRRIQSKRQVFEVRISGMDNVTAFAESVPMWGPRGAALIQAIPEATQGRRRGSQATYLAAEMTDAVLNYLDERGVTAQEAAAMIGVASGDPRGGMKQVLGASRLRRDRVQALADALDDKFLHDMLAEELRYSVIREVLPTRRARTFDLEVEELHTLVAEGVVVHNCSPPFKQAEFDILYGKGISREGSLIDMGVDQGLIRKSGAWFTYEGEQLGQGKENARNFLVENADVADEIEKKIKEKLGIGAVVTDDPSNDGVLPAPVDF

[4] = biological target: T3, Sentrin-specific protease 8 (Homo sapiens, UniProt Q96LD8); format: functional
T3 sequence (Q96LD8 whole entry): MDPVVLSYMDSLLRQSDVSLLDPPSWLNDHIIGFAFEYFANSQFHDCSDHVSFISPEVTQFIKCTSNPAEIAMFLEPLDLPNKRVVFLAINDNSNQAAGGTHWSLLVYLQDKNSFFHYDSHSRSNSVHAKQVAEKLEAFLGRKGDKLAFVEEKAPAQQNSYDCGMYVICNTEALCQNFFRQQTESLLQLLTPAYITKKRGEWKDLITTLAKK

[5] = biological target: T4, Apoptotic protease-activating factor 1 (Homo sapiens, UniProt O14727); format: functional
T4 sequence (O14727 whole entry): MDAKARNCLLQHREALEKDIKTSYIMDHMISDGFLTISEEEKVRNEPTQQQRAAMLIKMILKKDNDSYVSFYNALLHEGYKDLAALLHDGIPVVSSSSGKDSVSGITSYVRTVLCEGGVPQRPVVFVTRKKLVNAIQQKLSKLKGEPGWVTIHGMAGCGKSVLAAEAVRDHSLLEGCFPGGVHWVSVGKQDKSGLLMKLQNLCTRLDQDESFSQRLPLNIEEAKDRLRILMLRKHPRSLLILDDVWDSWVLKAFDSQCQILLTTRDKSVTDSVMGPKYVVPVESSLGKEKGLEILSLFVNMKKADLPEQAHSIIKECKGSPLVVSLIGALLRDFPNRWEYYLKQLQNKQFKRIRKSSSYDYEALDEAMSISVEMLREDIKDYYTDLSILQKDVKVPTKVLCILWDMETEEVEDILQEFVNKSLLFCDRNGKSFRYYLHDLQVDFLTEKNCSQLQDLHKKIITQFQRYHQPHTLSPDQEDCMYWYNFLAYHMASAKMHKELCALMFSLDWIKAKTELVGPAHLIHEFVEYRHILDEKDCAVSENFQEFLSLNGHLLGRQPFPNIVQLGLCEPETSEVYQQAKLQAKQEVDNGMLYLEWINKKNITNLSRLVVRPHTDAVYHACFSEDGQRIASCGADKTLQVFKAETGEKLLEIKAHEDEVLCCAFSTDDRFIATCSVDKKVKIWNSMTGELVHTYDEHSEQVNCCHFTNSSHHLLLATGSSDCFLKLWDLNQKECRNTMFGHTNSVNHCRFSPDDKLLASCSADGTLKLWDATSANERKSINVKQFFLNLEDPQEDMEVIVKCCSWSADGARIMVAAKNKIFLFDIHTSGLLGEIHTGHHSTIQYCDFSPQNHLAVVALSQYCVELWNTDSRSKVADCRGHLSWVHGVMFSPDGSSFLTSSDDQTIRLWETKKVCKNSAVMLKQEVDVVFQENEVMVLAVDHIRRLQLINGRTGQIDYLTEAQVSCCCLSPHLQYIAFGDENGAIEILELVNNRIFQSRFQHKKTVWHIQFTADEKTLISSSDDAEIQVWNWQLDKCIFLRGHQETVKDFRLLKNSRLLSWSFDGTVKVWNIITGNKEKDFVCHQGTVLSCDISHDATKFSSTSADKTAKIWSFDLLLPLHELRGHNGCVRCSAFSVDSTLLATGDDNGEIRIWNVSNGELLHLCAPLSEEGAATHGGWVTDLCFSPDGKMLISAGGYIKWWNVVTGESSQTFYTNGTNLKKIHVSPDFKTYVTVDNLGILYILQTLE

[6] = biological target: T3, Sentrin-specific protease 8; format: functional; remark: listed apart in the source
[7] = biological target: Protein-tyrosine kinase 2-beta (Homo sapiens, UniProt Q14289);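 note: potency of inhibitors of PYK2 kinase phosphorylation of poly-GT substrate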
Chain of Protein-tyrosine kinase 2-beta (Q14289 whole entry): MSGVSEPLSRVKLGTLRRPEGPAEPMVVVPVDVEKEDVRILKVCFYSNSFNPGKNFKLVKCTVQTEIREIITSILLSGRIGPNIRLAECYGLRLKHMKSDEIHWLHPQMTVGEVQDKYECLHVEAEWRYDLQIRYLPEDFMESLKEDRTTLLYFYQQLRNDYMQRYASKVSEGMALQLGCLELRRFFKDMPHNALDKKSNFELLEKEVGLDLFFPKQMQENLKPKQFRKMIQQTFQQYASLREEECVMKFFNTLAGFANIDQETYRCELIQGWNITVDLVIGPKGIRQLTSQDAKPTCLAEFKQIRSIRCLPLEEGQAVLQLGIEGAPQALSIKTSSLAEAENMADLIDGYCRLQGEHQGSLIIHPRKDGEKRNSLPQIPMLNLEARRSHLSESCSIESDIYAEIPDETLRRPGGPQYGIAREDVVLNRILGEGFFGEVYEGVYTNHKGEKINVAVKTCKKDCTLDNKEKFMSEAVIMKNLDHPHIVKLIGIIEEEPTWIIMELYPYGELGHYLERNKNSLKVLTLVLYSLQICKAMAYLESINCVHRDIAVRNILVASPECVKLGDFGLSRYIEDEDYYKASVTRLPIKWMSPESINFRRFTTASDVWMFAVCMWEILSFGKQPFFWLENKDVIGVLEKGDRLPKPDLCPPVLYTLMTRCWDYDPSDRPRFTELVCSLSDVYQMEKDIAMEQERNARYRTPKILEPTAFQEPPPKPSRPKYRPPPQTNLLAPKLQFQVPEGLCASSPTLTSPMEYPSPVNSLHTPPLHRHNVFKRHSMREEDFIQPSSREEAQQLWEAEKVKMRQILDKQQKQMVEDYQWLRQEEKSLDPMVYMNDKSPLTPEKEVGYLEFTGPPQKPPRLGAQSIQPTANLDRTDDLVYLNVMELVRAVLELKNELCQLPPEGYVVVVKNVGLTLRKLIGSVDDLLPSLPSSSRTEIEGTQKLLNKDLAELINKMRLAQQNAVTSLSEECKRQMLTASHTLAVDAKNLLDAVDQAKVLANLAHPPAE

Row | Compound | EC50 [1] | EC50 [2] | AC50 [3] | EC50 (Protein RecA) | IC50 [4] | IC50 [5] | IC50 [6] | IC50 [7]
1 | COCCNC(=O)c1c(N)n(CCC2=CCCCC2)c2nc3ccccc3nc12 | > 20 µM (not active) | > 20 µM (not active) |  |  |  |  |  | 
2 | O=C1Cc2ccccc2C(=O)N1CCc1ccccc1 |  |  | 2.17 µM (active) | 2.99 µM (active) | 0.148 µM (active) | 4.03 µM (active) | 2.89 µM (active) | > 69.5 µM (not active)
